# Data taken from paper PMC6086659 (eLife, 2018).
# Target: T1, GABAA receptor β1 subunit (α1β1γ2SEM tri-heteromer) (Rattus norvegicus, UniProt P15431+P62813, P15431:DEL334-439/P15431:INS334GT/P62813:DEL340-408)
# T1 construct: gene Gabrb1; purified α1β1γ2SEM receptor-Fab complex (M3/M4 loop deletions in α1 and β1; full-length γ2S); with GABAA receptor α1 subunit (Gabra1, P62813) and γ2S subunit (Gabrg2, P18508); 8E3 Fab
# Assay: radioligand saturation binding (scintillation proximity assay)
# T1 sequence (P15431 with tags, fused parts or gaps DEL334-439/INS334GT): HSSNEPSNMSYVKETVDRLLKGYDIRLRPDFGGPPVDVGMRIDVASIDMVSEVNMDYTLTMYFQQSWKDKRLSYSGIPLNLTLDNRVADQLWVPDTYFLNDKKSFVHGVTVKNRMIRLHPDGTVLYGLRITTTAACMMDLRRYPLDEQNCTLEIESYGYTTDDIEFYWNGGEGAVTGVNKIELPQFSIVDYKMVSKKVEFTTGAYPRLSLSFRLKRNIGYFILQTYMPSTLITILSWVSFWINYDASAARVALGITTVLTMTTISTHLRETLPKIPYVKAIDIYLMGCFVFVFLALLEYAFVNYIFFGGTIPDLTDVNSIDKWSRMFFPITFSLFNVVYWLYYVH
# T1 sequence (P62813 with tags, fused parts or gaps DEL340-408): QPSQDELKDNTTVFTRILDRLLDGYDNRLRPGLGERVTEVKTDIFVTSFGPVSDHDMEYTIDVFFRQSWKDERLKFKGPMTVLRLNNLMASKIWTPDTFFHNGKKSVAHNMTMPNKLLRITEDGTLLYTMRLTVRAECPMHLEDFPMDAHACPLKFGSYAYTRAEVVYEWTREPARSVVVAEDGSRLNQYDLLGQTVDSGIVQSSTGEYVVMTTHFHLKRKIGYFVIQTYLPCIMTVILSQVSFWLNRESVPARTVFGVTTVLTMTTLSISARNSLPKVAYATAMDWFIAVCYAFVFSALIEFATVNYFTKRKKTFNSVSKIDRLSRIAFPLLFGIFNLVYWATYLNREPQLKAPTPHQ
# T1 sequence (P18508 39-466 partner): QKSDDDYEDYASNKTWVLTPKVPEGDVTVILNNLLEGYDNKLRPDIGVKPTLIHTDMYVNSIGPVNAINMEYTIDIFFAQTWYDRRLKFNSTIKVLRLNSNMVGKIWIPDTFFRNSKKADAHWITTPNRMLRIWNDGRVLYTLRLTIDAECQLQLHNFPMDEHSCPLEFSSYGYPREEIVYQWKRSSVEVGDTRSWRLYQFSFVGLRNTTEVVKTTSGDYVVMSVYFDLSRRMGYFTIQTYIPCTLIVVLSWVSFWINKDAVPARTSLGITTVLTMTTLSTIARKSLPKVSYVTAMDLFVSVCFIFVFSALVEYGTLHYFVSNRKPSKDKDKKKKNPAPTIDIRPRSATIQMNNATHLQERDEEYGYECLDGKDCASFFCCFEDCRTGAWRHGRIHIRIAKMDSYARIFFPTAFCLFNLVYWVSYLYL
smiles,measurement,value
NCc1cc(=O)[nH]o1 [muscimol],Kd,109 nM
